Results on 2 compounds are retold here after patent US10912846B2, “Molecular probes for chemiluminescence imaging and in vivo detection of target molecules” (ARIZONA BOARD OF REGENTS ON BEHALF OF THE UNIVERSITY OF …, priority 2015, dated 2021).

Data set [1] deals with mechanical crush and syringe needle piecing. Description: CLI of mechanical injuries on the tail. Format: in vivo, mice. Conditions: 200 μL of 2.0×10^−4 M; 0, 20, 40 min. Here is the method:
(§1) Additional experiments were carried out using test mice suffering from gingival hemorrhage and mechanical injury. For example, nude mice were fed with cooked yolk for 1 week until gingival hemorrhage was visually identified. Various images were acquired (e.g., 0, 20 (supine position), and 30 min (prone position)) after the injection of 200 μL of 2.0×10^−4 M probe 3 or luminol (data not shown). […] Also, images of injuries (e.g., mechanical crush and syringe needle piecing, both on the end to tail) were acquired 0, 20, and 40 min, respectively, after the injection of 200 μL of probe 3 (2.0×10^−4 M).

A short description of data set [2]: In vitro chemiluminescence kinetics of oxidation by H2O2. Here is the method: (§2) Solutions of 3 and luminol were prepared in 0.01 M PBS (pH of 7.4). For all ROS other than H2O2, the reaction was carried out by mixing 200 μL of the ROS solution (1.0×10^−3 M) with 800 μL of the solution of probe 3 or luminol (1.0×10^−6 M). The voltage of the photomultiplier tube (PMT) was set at −400 V. In the case of H2O2, 200 μL of its solution (1.0×10^−2 M) was used, and the voltage of PMT was set at −800 V; the other conditions were identical to those used for the other ROS.

The test system of data set [3] is HRP. Description: Oxidation by H2O2 catalyzed by trace HRP in vitro. Format: biochemical, horseradish.
For a further data set, the system named is acute dermatitis. Description: CLI of acute dermatitis induced by dimethylbenzene. Format: in vivo, mice. Conditions: 720 μg/kg; 30, 60, 90 min.
Data set [4] is described as follows: In vitro chemiluminescence from oxidation by non-H2O2 ROS. Conditions: PBS pH 7.4, ROS 1.0×10^−3 M, probe 1.0×10^−6 M. Here is the method:
as §2

The target of data set [5] is T1, HRP (Armoracia rusticana, UniProt P00433).
T1 construct: purchased Sigma-Aldrich
T1 sequence (P00433 31-338 limits assumed): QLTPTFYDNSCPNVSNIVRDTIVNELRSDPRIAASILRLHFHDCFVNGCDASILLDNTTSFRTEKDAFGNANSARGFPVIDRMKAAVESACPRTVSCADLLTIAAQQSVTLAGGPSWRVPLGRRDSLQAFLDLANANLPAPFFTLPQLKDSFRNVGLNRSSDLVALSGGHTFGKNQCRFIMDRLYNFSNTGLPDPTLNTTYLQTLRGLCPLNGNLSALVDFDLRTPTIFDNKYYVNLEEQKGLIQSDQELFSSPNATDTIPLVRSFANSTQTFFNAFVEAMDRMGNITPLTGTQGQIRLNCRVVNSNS
Nature of the data set: CLI of subcutaneously injected HRP in nude mice. Format: in vivo. Here is the method: CLI of HRP in the same nude mouse with the use of compound 3 as probe (7.2 mg per kg body weight, intraperitoneally injected). Against PBS-only control in the left foreleg, the total activity of HRP introduced into the right foreleg, the left hind leg, and the right hind leg were 0.0250, 0.125, and 0.250 U, respectively. The moment when the administration of 3 was completed was set as −20 min (panel (i)) with 0 min (panel (ii)) being the moment when the subcutaneous injection of HRP was finished. The circles in panel (ii) indicate both the sites of HRP introduction and the ROI for which photon-counting integration was performed.
Imaging of HRP was acquired in nude mice pre-injected with compound 3 (720 μg per kg body weight) against a control mouse intraperitoneally injected with luminol. […] To achieve significant CL intensity and to assure the accuracy of photon counting, the probe at a concentration of 720 μg/kg was used in subsequent studies in nude mice whose right foreleg, left hind leg, and right hind leg were injected with HRP of a total activity of 12.5 U, 25.0 U, and 50.0 U, respectively. Significant luminescence was produced and remained stable in a time window of 40 to 120 minutes following the introduction of HRP in each of the legs (data not shown).
In subsequent experiments, a dose of 7.2 mg/kg of compound 3 was used with which a total activity of HRP as low as 0.025 U could be detected. The CL produced intensified as the concentration of HRP increased, yielding a positive linear relationship.
Nude mice used in this work, each weighing 20-26 g, were obtained from the Laboratory Animal Center of the Fourth Military Medical University, China. Research and animal sacrifice protocols are in accordance with the principles and guidelines adopted by the Fourth Military Medical University. The mice were kept for an acclimatization period of 7 days under laboratory conditions (temperature maintained at 22±2° C., 12-hr cycles of alternating illumination and darkness, and free access to food and water) prior to any imaging experiments. […]

A short description of another data set: Acute toxicity in mice. Conditions: mouse, in vivo. From the text: The results are summarized in (a).
Another data set has as its target T2, HRP-Ab (Armoracia rusticana, UniProt P00433).
T2 construct: purchased ZSGB-Bio Inc. ZB2305
T2 sequence (P00433 31-338 limits assumed): T1 sequence (P00433 31-338 limits assumed)
Nature of the data set: CLI of HRP-labeled goat anti-mouse IgG (HRP-Ab) in nude mice. Format: in vivo. Here is the method:
The use of the probe was validated using an enzyme-linked immunosorbent assay (ELISA) by imaging in nude mice the HRP-labeled goat anti-mouse IgG (HRP-Ab), a commercially available and commonly used HRP-antibody conjugate. To assess the sensitivity of the CLI, different amounts of the conjugate were administered to three of the legs of a nude mouse with the left foreleg injected with PBS only being the control. […] The brightness of the emission is proportional to the amount of HRP-Ab present. […] However, in the two hind legs, whose total activity of HRP is at 0.015 and 0.030 U, respectively, the emission of light was vivid, and the reduction in luminescence intensity was only about 10% after 60 minutes following the probe administration.
Nude mice used in this work, each weighing 20-26 g, were obtained from the Laboratory Animal Center of the Fourth Military Medical University, China. Research and animal sacrifice protocols are in accordance with the principles and guidelines adopted by the Fourth Military Medical University. The mice were kept for an acclimatization period of 7 days under laboratory conditions (temperature maintained at 22±2° C., 12-hr cycles of alternating illumination and darkness, and free access to food and water) prior to any imaging experiments. Nude mice were anesthetized by isoflurane inhalation, following which 200 μL of a solution of compound 3 or luminol in PBS of pH 7.4 was injected intraperitoneally. For the imaging of HPR or HRP-Ab, the probe solution (2.0×10^−3 M) was first injected, followed by the subcutaneous injection 20 minutes after of PBS and HRP (variable amount in 0.01 M PBS) solutions into the legs of nude mice. The control experiments with the use of luminol were conducted under otherwise identical conditions. IVIS 200 bioluminescence imaging system (Caliper Life Sciences) (f/stop, 1; no optical filter) was used for all imaging experiments. Exposure time was set at 5 minutes with moderate sensitivity, and the binning and field of view (FOV) are 8 and 13.3 cm, respectively. […]

For another data set, the system named is gingival hemorrhage. Nature of the data set: CLI of gingival hemorrhage. Conditions: 200 μL of 2.0×10^−4 M. Format: in vivo, nude mice. Here is the method:
as §1

The subject of the next data set is inflammation. Nature of the data set: CLI of inflammation caused by intramuscular injection of PBS. Format: in vivo, nude mice. The settings on record: PBS intramuscularly two days prior; compared with 18FDG-PET/CT. Here is the method:
Furthermore, inflammation caused by intramuscular injection of PBS was also clearly imaged using probe 3 and in comparison with results using PET/CT (data not shown). Nude mice were intramuscularly injected with PBS two days prior to said imaging experiments. For the verification of the induced inflammation, 18-Fluorodeoxyglucose-Positron emission tomography/Computed tomography (18FDG-PET/CT) scan, from feet to head, was performed 12 h after the CLI experiment. The test mouse was anesthetized with isoflurane inhalation followed by intraperitoneal injection of 3.7 MBq of ^18FDG. An uptake time of 60 min was allowed before acquisition.

For data set [6] the following is noted: mouse, in vivo. Here is the method:
Nude mice (24-26 g) were anesthetized followed by intraperitoneal injection of 3 or 2 (in 0.01 M PBS pH 7.4) using a dose of 660 μg of 3 or 2 per kilogram of the mouse body weight. The mice were housed individually and received food ad libitum. Urine was collected every 1 to 2 hours, and the collected samples were diluted to appropriate concentration with PBS. Probe 3 in each urine sample was quantified by comparing the intensity of its chemiluminescence resulting from its oxidation by NaClO with those of standard solutions. […] The potential toxicity of the probe was further evaluated with a sample of 50 mice using a dose of probe 3 at 72 mg/kg body weight of mouse.

The test system of data set [7] is raw 264.7 cells; human monocyte. Nature of the data set: In vitro response to phagocyte respiratory burst. Format: cell-based. Conditions: 5.0×10^−5 M; PMA or FMLP 100 μg/ml. Here is the method:
No chemiluminescence was detected in the absence of phorbol 12-myristate 13-acetate for (PMA) or N-formylmethionyl-leucyl-phenyl-alanine (FMLP). (a) CL kinetics resulting from the response of probe 3 to respiratory burst of raw 264.7 cells when stimulated with PMA (100 μg/ml). (b) CL kinetics resulting from the response of probe 3 to respiratory burst of human monocyte (10^6 cells/ml) in hank's when stimulated by FMLP (100 μg/ml). The kinetics curves were recorded with an MPI-A Chemiluminescence Analyzer with the use of probe 3 or luminol (5.0×10^−5 M).

Data set [8] can be described thus: Solubility in alkaline and PBS solutions. Format: physicochemical. The settings on record: alkaline and phosphate-buffered saline solutions (PBS, pH=7.4). Here is the method: Oxidation of compound 3 was accompanied by vivid green luminescence when the excited oxidation product (compound 2) underwent deactivation (see FIG. 1).
Solids of compound 3 or luminol were dissolved in 0.01 M NaOH to a final concentration of 8.0×10^−3 M, and the resulting solutions were stored at 4° C. in the absence of light. The solutions were further diluted by using sterile phosphate-buffered saline (PBS, 0.01 M and pH 7.4) as desired in various studies. PMA was dissolved in DMSO to prepare 500 µg/ml solution. HRP was freshly prepared by dilution using sterile PBS.

Each structure is given as a SMILES string.

In the case of `O=C(O)c1cc2c(=O)[nH][nH]c(=O)c2cc1-c1c2ccc(=O)cc-2oc2cc(O)ccc12` [compound 3], the “identification of sites of inflammation by luminescence” value (in data set [1]; with gingival hemorrhage) was “clearly identified” throughout. Besides, the duration of luminescence entry in [2] (H2O2 1.0×10^−2 M, PMT −800 V) was “more than 18 days”. In addition, the “sensitivity toward H2O2 compared with the other ROS” value in data set [2] (PMT −800 V needed for detection) was “insensitivity”. For the same compound, the “luminescence from oxidation by H2O2” value in the data set on HRP [3] (HRP 5.0×10−5 mg/mL added) is “intense emission of a green light”; in the data set with HRP [3] (no HRP, probe 5.0×10^−3 M, H2O2 1.0×10^−4 M) it was “no detectable luminescence”. Besides, in the data set on acute dermatitis, the “CLI of acute dermatitis” value is given as “highly efficient”. The “CL response / sensitivity to ROS compared with luminol” value in data set [4] is recorded as “more sensitive”; in data set [4] (listed as probe 3), “much stronger responses”. Moreover, the “HRP activity at which production of CL appeared saturated” value on HRP [5] (720 μg/kg) is reported as “about 25.0 U”. On HRP [5] (7.2 mg/kg), the “lowest total activity of HRP detected” value is at most 0.025 U. Moreover, the “dosage at which CL could be detected” value at HRP [5] (mice) is reported as “about 2 μg/kg”. In addition, in the data set “Acute toxicity in mice”, the acute toxicity result was “does not appear that the probe or the resulting luminophore has significant acute toxicity”. On HRP-Ab (7.2 mg/kg IP, hind legs 0.015 and 0.030 U, after 60 minutes), the “reduction in luminescence intensity” value is listed as “about 10%”. Besides, the “luminescence at HRP-Ab site” value on HRP-Ab (hind legs, 0.015 and 0.030 U) is “vivid”; at HRP-Ab (right foreleg, 0.0030 U HRP-Ab), “inadequate to produce any significant photon count or luminescence”. Moreover, the imaging of inflammation entry in the data set with inflammation was “clearly showed inflammation”. Besides, in [6], the “metabolism during the imaging procedure” value is “not quickly metabolized”. The “uptake, IP versus IV injection” value in data set [6] is given as “comparable uptakes”. The “probe cleared by uresis” value in data set [6] (nude) was “about 90%”. Also, the “sensitivity for detection of ROS compared with luminol” value in [7] is given as “much more sensitive”. Also, in data set [8], the solubility result is “readily soluble”.
Turning to `Nc1cccc2c(=O)[nH][nH]c(=O)c12` [luminol, Luminol, reference compound], the “time for luminescence to decay to the baseline” value in data set [2] (H2O2 1.0×10^−2 M, PMT −800 V) is “about 600 s”. Besides, the “CLI of acute dermatitis” value with acute dermatitis was “failed to produce any detectable signals”.
